Source: article PMC11220827 (Frontiers in Pharmacology, 2024)
Values joined by “and” are separate entries in the source; they are usually repeats but may differ in a detail not shown here. Equal entries are not always repeated. “Also recorded” adds a separate entry of the source.

Experiments:
rats = details: cited from earlier work
[1] = ref SCCS 2022; cited from earlier work
mice [2] = details: oral administration; ref SCCS 2022; cited from earlier work
Sprague-Dawley rats = details: cited from earlier work
TRβ [3] = target: T1, TRβ (Homo sapiens, UniProt P10828); assay: TRβ CALUX assay (thyroid)
T1 sequence (P10828 1-461): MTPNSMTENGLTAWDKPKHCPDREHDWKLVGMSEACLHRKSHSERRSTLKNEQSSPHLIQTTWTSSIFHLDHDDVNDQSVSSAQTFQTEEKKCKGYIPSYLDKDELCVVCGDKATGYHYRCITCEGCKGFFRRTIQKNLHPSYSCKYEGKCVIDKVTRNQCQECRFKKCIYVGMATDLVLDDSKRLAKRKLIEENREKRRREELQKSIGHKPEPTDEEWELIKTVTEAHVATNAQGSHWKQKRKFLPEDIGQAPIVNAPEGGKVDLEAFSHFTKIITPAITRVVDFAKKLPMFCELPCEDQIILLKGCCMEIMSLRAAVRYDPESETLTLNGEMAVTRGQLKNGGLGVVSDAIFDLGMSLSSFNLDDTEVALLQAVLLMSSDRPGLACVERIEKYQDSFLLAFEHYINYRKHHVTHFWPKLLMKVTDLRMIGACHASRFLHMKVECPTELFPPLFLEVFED
Experimental: (§1) using the U2-OS based CALUX cytotox bioassay. The cytotoxicity of each test chemical was assessed using the U2-OS based cytotoxicity CALUX bioassay. Concentrations causing >20% reduction of luminescence were considered cytotoxic.
(§2) cytotoxicity (relative induction in the cytotoxicity CALUX bioassay > 80%) were used for final
evaluation of analysis results.
(§3) induction in the cytotox CALUX bioassay > 80%) were used for final evaluation of analysis results.
(§4) All analysis results were expressed in molar (M) final in well.
(§5) For determination of the (anti-)ERα, (anti-)AR and (anti-)TRβ CALUX activities, CALUX cells were
(§6) seeded in assay medium. Following exposure of the CALUX cells to serial dilutions of the
(§7) compounds in triplicate for 24 h, the induction of luciferase production was quantified by measuring
(§8) luminescence following addition of the substrate luciferin. For antagonist assays, a fixed
(§9) concentration of assay agonist was present in each well, to generate a basal signal. On each plate, a
(§10) complete calibration curve for each respective bioassay was also analysed using the relevant reference
(§11) compounds. For the analyses in the presence of rat liver S9, 0.03% (v/v) of PB/BNF induced rat liver
(§12) S9 mix (including NADPH and an NADPH-regenerating system) was added to the cells directly after
(§13) addition of the compounds, which remained there for the duration of the exposure period (24 h) (van
(§14) Relative light units (RLUs) of the CALUX assays were analysed as follows. For agonist assays,
(§15) background values (exposure to DMSO only) were subtracted, and the maximum activity of the
(§16) assay’s reference compound was set to 100%. For antagonist assays, the basal signal (exposure to fixed concentration of agonist only) was set to 100%. Activity of the samples was scaled accordingly,
(§17) resulting in expression of the data as “percentage of maximum reference response”. Graphs were
(§18) generated using the statistical software package GraphPad Prism V5.03. Using these graphs, lowest
(§19) effect concentrations (LOECs) and PC50 concentrations were determined; LOEC is defined as the
(§20) maximum reference compound activity for agonist assays, and 20% of the maximum reference
(§21) compound activity for antagonist assays. The PC50 is defined as the concentration where the activity
(§22) of the sample equals 50% of the maximum activity of the assay’s reference compound.

HepG2 and MCF-7 cells = details: 24 h
H295R cells [4] = tested on: H295R cells
Experimental: (§23) DMSO (1% compound stock in incubation mixture).
was measured on a Berthold luminometer.
(§24) Serial dilutions of the compounds were incubated in Tris -buffer (pH 8.0) overnight at 4°C in the
(§25) incubation mixture). After incubation, TTR-bound and free T4 were separated on a Bio-Gel P-6DG
(§26) column. The eluate was added to assay medium after which TRβ CALUX cells were exposed for 24 h
(§27) For this TRβ CALUX exposure, serum-free assay medium was used.
(§28) wells plates in assay medium, and exposed for 48h to a serial dilution of the compound in triplicate
(§29) exposure, the assay medium was analysed on the ERα and AR CALUX bioassays as described
(§30) Changes in hormone levels compared to a vehicle control exposure
(§31) Preincubation with rat liver S9 fraction
(§32) To assess the effect of metabolism on the activity of the test
(§33) compound for these assays, preincubations with rat liver S9 were performed. Compounds (10 μl
(§34) DMSO stock solution) were incubated for 0 h (control) or 3 h (test condition) in a total volume of 1
(§35) ml TRIS buffer in the presence of 1% (v/v) PB/BNF induced rat liver S9 mix (including NADPH and
(§36) an NADPH-regenerating system). After incubation, the reaction was stopped by the addition of ice
(§37) cold acetone, and samples were frozen to stimulate protein precipitation. After thawing, the
(§38) precipitated protein fraction was subsequently removed by centrifugation. The supernatant, cont aining
(§39) the metabolites and any remaining non-metabolised parent compound, was concentrated under a
(§40) gentle nitrogen flow. After evaporating to dryness, the sample was taken up in 50 μl DMSO followed
(§41) by the addition of 50 μl TRIS buffer. This extract was used for the exposure of the hTPO inhibition,
as §14, §15, §16, §17, §18, §19, §20, §21, §22
(§42) the test compound was divided by the amount of estrogens and androgens produced by the solvent
(§43) control-exposed cells. A sample was considered ‘active’ if it decreased the hormone production 0.8-

mice [5] = details: in the diet; ref SCCS 2022; cited from earlier work
[6] = at 25°C, in vitro; ref Nan et al. (2014); cited from earlier work
TRβ [7] = target: T1, TRβ
Experimental: as §1, §2
evaluation of analysis results.
as §3, §4, §5, §6, §7, §8, §9, §10, §11, §12, §13, §14, §15, §16, §17, §18
(§44) effect concentrations (LOECs) and PC50 concentrations were determined; LOEC is defined as the […]

H295R cells [8] = tested on: H295R cells; remark: listed apart in the source
Experimental: as §23
was measured on a Berthold luminometer.
as §24, §25, §26, §27, §28, §29, §30, §31, §32, §33, §34, §35, §36, §37, §38, §39, §40, §41, §14, §15, §16, §17, §18, §19, §20, §21, §22, §42, §43

[9] = tested on: Syrian Hamster Embryo (SHE) cells; details: ref SCCS 2022; cited from earlier work
Estrogen ERα (h) [10] = target: T2, Estrogen ERα (h) (Homo sapiens, UniProt P03372); assay: biochemical; details: read-out: Estrogen ERα (h) (agonist RL): % inhibition @10 µM
ERβ Human Estrogen NHR = target: T3, ERβ Human Estrogen NHR (Homo sapiens, UniProt Q92731); assay: biochemical; format: binding
T3 construct: Panlabs (named as assay provider)
Experimental: (§45) Chemicals that are flagged for a target are tested in follow-up dose-response assays to establish potency of the interaction.
as §14, §15, §16, §17, §18, §19, §20, §21, §22, §42, §43
Pharmacology profiling assays
(§46) targets. The list of targets included the original panel of 44 targets (including receptors, ion channels,
(§47) transporters and enzymes) recommended by 4 major pharmaceutical companies as significant
reasoned to link to pathological effects.
(§48) are considered to represent significant effects (i.e. a “hit”).
(§49) around the control level. For several targets, additional concentration effect assays were conducted to
(§50) determine the potency (IC50). The concentrations tested (in duplicate) ranged between 30 nM and 100

[11] = Measured plasma concentrations of daidzein from dietary intake; format: in vivo, human; details: PoD 10 nM / 3.14 µM
From the text: Daidzein is present in soy-derived foods and is consumed in large amounts in Asian countries.

ERα receptor [12] = target: T4, ERα receptor (Homo sapiens, UniProt P03372)
5-HT2A (h) = 5-HT2A (h) (Homo sapiens, UniProt P28223); assay: biochemical; format: binding; details: read-out: 5-HT2A (h) (agonist RL): % inhibition @10 µM
Experimental: as §45
Pharmacology profiling assays
as §46, §47
reasoned to link to pathological effects. Results showing an inhibition or stimulation higher than 50%
as §48
and 50% are indicative of weak to moderate effects and results showing an inhibition (or stimulation)
as §49, §50

Estrogen ERα (h) [13] = target: T2, Estrogen ERα (h); details: pharmacology profiling; LOEC = 10% of maximum reference compound activity
ERα receptor [14] = target: T4, ERα receptor; remark: listed apart in the source
Experimental: as §1, §2
evaluation of analysis results.
as §3, §4, §5, §6, §7, §8, §9, §10
compounds. For the analyses in the presence of rat liver S9, 0.03% (v/v) of PB/BNF induced rat liver […]
Relative light units (RLUs) of the CALUX assays were analysed as follows. […]
as §44

EGFR Human RTK Kinase = EGFR Human RTK Kinase (Homo sapiens, UniProt P00533); assay: biochemical; details: read-out: EGFR Human RTK Kinase Enzyme activity: % inhibition @10 µM
Experimental: as §45, §14, §15, §16, §17, §18, §19, §20, §21, §22, §42, §43
Pharmacology profiling assays
targets. The list of targets included the original panel of 44 targets (including receptors, ion channels, […]

[15] = +S9 (preincubation with rat liver S9)

T3 sequence (Q92731 whole entry): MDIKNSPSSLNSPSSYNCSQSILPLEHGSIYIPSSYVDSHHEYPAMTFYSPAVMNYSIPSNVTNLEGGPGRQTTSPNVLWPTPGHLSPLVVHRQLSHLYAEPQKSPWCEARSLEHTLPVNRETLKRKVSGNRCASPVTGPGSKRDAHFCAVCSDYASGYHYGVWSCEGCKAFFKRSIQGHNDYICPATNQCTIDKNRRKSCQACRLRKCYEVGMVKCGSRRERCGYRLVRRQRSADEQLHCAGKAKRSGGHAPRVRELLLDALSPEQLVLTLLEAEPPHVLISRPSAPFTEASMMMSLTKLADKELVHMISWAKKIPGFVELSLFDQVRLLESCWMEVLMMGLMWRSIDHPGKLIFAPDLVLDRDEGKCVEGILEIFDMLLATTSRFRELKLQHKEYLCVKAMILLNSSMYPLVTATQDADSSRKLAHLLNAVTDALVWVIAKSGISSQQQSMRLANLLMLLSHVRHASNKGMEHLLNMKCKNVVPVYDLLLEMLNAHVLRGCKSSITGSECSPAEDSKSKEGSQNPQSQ
T4 sequence (P03372 whole entry): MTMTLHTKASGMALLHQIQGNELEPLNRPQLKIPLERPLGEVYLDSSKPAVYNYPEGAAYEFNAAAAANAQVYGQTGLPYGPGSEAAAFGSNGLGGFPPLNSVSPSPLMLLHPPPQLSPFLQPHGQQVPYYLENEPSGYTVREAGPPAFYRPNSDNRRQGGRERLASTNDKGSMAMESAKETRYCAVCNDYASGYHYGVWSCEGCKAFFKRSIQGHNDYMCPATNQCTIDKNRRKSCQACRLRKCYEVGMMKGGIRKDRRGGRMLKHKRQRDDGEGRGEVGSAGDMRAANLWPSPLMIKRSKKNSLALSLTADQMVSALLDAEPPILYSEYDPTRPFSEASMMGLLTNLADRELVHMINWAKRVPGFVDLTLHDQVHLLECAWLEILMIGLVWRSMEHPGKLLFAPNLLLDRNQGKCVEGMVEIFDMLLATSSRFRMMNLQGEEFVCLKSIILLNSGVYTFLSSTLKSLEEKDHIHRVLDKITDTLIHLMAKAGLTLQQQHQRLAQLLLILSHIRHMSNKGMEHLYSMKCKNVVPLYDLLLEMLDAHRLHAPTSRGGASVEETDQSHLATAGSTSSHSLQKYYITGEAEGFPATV
T2 sequence (P03372 whole entry): as above
Chain of 5-HT2A (h) (P28223 whole entry): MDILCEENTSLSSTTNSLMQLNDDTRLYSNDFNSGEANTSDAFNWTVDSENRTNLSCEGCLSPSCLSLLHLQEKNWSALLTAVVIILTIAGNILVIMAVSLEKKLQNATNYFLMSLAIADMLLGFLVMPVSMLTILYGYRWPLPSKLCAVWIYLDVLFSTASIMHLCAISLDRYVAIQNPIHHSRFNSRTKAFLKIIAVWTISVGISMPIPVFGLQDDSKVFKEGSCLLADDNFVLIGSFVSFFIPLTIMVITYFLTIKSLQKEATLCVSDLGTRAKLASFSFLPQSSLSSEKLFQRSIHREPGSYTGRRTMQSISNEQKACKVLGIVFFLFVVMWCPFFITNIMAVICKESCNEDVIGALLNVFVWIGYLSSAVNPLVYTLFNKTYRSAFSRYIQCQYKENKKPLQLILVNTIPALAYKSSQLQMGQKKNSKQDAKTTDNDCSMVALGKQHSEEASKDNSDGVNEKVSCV
Chain of EGFR Human RTK Kinase (P00533 25-1210): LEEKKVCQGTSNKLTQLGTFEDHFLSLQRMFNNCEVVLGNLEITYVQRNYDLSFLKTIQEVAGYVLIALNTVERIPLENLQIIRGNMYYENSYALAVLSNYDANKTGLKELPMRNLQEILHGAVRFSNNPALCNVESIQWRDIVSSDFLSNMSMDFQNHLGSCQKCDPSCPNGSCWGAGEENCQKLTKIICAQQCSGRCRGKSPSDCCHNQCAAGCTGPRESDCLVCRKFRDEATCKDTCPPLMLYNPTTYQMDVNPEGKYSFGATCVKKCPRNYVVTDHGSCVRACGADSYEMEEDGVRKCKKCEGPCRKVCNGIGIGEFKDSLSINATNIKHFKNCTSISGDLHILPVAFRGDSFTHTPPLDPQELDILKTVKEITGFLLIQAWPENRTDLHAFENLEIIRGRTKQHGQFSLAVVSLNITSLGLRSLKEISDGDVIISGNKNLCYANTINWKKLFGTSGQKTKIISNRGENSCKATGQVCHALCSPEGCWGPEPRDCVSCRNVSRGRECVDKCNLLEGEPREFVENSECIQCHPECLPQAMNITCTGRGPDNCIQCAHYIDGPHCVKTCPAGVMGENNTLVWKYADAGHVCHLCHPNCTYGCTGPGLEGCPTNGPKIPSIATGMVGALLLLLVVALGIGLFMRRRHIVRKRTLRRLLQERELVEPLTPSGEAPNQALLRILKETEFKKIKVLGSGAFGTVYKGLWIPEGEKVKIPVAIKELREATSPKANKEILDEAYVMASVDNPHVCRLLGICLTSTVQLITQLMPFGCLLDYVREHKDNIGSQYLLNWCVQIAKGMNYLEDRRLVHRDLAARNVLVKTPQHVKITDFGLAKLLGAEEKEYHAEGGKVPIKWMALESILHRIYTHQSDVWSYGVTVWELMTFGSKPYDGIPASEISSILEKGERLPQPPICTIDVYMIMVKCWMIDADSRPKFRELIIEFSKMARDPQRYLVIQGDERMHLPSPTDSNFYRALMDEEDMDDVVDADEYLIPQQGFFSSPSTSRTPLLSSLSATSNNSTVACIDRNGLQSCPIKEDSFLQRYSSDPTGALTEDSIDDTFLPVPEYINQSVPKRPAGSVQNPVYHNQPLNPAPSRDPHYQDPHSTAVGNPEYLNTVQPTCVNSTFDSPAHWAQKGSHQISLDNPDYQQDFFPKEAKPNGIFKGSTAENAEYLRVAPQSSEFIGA

O=c1c(-c2ccc(O)cc2)coc2cc(O)cc(O)c12 [Genistein, 5,7-DIHYDROXY-3-(4-HYDROXYPHENYL)-4-BENZOPYRONE]
NOAEL, 13 weeks (rats; male and female rats, feed 0, 5, 50 or 500 mg/kg/day, ref McClain et al. 2006): 50 mg/kg/day | NOAEL, 52 weeks (rats; male and female rats, feed, based on mild hepatic effects, ref McClain et al. 2006): 50 mg/kg/day | NOAEL from repeat dose studies (rats; ref McClain et al., 2006): above 50 mg/kg/day | In vitro Comet assay result [1]: positive, and four were negative | In vivo DNA damage/Comet assay result (mice [2]): Negative in mice after oral administration | NOAEL, female rats (Sprague-Dawley rats; 5 ppm in feed, ref NTP 2008): 0.5 mg/kg | NOAEL, male rats (PoD) (Sprague-Dawley rats; 5 ppm in feed, ref NTP 2008): 0.3 mg/kg | LOAEL, male rats (Sprague-Dawley rats; ref SCCS 2022): 7 mg/kg | TRß thyroid LOEC, +S9 (TRβ [3]; +S9 (rat liver)): >−5 Log M | TRβ Agonist/antagonist effect (TRβ [3]; CALUX): did not activate or antagonize the thyroid receptor-β; also recorded: No effect | TRß thyroid LOEC, −S9 (TRβ [3]; −S9): >−5 Log M | Metabolism by HepG2 or MCF-7 cells (HepG2 and MCF-7 cells): metabolized by both cell types | Steroidogenesis (AR) Testosterone LOEC, +S9 (H295R cells [4]; [15]): −5.7 Log M | LOEC, androgen synthesis (impaired) (H295R cells [4]; H295R): 3.2 × 10^−6 ± 0 M | Steroidogenesis (AR) Testosterone LOEC, −S9 (H295R cells [4]; −S9): −5.5 Log M | P53-/- Mouse Tumorigenesis Assay result (mice [5]): negative | pKa (dissociation constant) [6]: 7.25 ± 0.84 | Anti-TRß antithyroid LOEC, +S9 (TRβ [7]; +S9 (rat liver)): >−5 Log M | Anti-TRß antithyroid LOEC, −S9 (TRβ [7]; −S9): >−5 Log M | Estrogen synthesis, Increase/decrease (H295R cells [8]): No effect | Steroidogenesis (ERα) 17β-estradiol LOEC, +S9 (H295R cells [8]; [15]): >−6.7 Log M | Steroidogenesis (ERα) 17β-estradiol LOEC, −S9 (H295R cells [8]; −S9): >−6 Log M | Cell transformation assay (SHE cells) result [9]: one was positive

O=c1c(-c2ccc(O)cc2)coc2cc(O)ccc12 [Daidzein, DAIDZEIN]
inhibition at 10 µM (Estrogen ERα (h) [10]): 100% | ERβ LOEC (binding to receptor) (ERβ Human Estrogen NHR; pharmacology profiling, LOEC = 10% of maximum reference compound activity): 3.25 nM and 3.2 nM | inhibition at 10 µM (ERβ Human Estrogen NHR; read-out: ERβ Human Estrogen NHR Binding (Agonist): % inhibition @10 µM): 100% | BER, highest measured dietary plasma concentration [11]: 0.003 | LOEC, ERα CALUX assay (ERα receptor [12]): 110 ± 18 nM | ERα receptor LOEC, +S9 (ERα receptor [12]; +S9 (rat liver)): −7.0 Log M | LOEC, ERα + S9 (ERα receptor [12]; CALUX ERα, with rat liver S9): 100 ± 0.0 nM and 100 ± 0 nM and 100 nM | LOEC, ERα − S9 (ERα receptor [12]; CALUX ERα, without S9): 110 nM | NOEC (in vitro PoD) = ERα CALUX LOEC divided by 3 (ERα receptor [12]; estimated from LOEC + S9): 33 nM | ERα receptor LOEC, −S9 (ERα receptor [12]; −S9): −6.9 Log M | inhibition at 10 µM (5-HT2A (h)): 38.9% | ERα LOEC (binding to receptor) (Estrogen ERα (h) [13]): 35 nM and 35.2 nM | Anti-ERα antiestrogen LOEC, +S9 (ERα receptor [14]; +S9 (rat liver)): >−5 Log M | Anti-ERα antiestrogen LOEC, −S9 (ERα receptor [14]; −S9): >−5 Log M | inhibition at 10 µM (EGFR Human RTK Kinase): 17.8%
